According to ChEMBL document CHEMBL6109139, “Rational Design of the First Dual Agonist at Trace Amine-Associated Receptor 1 and 5-HT2C Receptors Based on Binding Pocket Similarity for the Treatment of Schizophrenia and Alzheimer's Disease-Related Psychosis” (J Med Chem, 2025):
pEC50, pIC50: −log10 of the molar value. Activity calls are given as the source filed them. No cut-off for these calls is given here.

Columns and labels:
[1] = test system: Mus musculus; test: Antipsychotic activity against methamphetamine-induced hyperlocomotion in male C57BL/6J mouse model assessed as reduction in hyperlocomotive state at 10 mg/kg, IG pretreated with compound followed by methamphetamine addition and measured after 30 mins by open field test; format: functional, organism-based
[2] = molecular target: Kappa-type opioid receptor (Homo sapiens) (UniProt P41145); test: Binding affinity to op-kappa receptor (unknown origin) at 10 uM by radioligand binding assay relative to control
Chain of Kappa-type opioid receptor (Homo sapiens) (P41145 whole entry): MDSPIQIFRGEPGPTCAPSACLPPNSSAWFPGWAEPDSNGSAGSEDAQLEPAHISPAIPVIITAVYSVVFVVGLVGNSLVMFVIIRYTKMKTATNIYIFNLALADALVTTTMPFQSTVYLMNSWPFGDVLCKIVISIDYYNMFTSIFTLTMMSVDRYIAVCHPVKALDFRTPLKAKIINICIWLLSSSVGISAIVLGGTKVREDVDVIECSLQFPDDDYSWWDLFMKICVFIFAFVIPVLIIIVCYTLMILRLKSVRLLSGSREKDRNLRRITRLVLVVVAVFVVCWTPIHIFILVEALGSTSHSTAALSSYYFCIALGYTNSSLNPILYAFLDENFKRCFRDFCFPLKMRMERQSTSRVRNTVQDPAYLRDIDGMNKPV

[3] = molecular target: Sodium-dependent noradrenaline transporter (Homo sapiens) (UniProt P23975); test: Binding affinity to NET receptor (unknown origin) at 10 uM by radioligand binding assay relative to control
Chain of Sodium-dependent noradrenaline transporter (Homo sapiens) (P23975 whole entry): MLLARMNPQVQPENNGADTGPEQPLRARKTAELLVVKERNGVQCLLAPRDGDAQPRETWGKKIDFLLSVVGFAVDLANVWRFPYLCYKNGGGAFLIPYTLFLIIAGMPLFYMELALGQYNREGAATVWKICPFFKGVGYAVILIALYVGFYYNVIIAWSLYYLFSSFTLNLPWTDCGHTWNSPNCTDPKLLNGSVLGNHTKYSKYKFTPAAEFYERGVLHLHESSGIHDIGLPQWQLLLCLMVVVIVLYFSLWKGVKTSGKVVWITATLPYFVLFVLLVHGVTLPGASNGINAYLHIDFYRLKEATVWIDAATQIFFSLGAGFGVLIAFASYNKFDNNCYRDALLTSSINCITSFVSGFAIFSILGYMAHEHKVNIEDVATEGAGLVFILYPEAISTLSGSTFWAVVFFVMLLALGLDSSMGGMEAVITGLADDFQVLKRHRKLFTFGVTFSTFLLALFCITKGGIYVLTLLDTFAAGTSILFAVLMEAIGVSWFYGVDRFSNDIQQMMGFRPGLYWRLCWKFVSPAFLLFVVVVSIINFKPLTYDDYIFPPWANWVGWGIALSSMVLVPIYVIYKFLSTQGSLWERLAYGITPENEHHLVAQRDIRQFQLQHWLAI

[4] = Toxicity in female Sprague-Dawley rat assessed as suppression of body weight gain at 7.5 mg/kg, po administered once daily for 4 weeks and measured after 4 weeks; format: organism-based; details: in vivo, 1344 h, time 8 weeks
[5] = Toxicity in male Sprague-Dawley rat assessed as minimal corneal neovascularization at 7.5 mg/kg, po administered once daily for 4 weeks; format: organism-based; details: in vivo, 672 h
[6] = Plasma protein binding in dog assessed as unbound fraction by LC-MS/MS analysis; format: ADME, cell-free, Canis lupus familiaris
[7] = Toxicity in male Sprague-Dawley rat assessed as suppression of food consumption at 7.5 mg/kg, po administered once daily for 4 weeks and measured after 4 weeks; format: organism-based; details: in vivo, 1344 h, time 8 weeks
[8] = Toxicity in male Sprague-Dawley rat assessed as piloerection at 7.5 mg/kg, po administered once daily for 4 weeks; format: organism-based; details: in vivo, 672 h
[9] = Toxicity in male Beagle dog assessed as change in organ ratios at 0.75 to 2.5 mg/kg, IG administered once daily for 4 weeks and measured after 4 weeks; format: organism-based, Canis lupus familiaris; details: in vivo, po, 1344 h, dose 0.75-2.5 mg/kg, time 8 weeks
[10] = Toxicity in female Sprague-Dawley rat assessed as slow respiration at 7.5 mg/kg, po administered once daily for 4 weeks; format: organism-based; details: in vivo, 672 h
[11] = Toxicity in male Beagle dog assessed as change in body weight at 0.75 to 2.5 mg/kg, IG administered once daily for 4 weeks and measured after 4 weeks; format: organism-based, Canis lupus familiaris; details: in vivo, po, 1344 h, dose 0.75-2.5 mg/kg, time 8 weeks
[12] = Mutagenicity in Salmonella typhimurium TA102 by Ames test; format: toxicity; details: salmonella enterica subsp. enterica serovar typhimurium
[13] = molecular target: Sodium-dependent dopamine transporter (Homo sapiens) (UniProt Q01959); test: Binding affinity to DAT receptor (unknown origin) at 10 uM by radioligand binding assay relative to control
Chain of Sodium-dependent dopamine transporter (Homo sapiens) (Q01959 whole entry): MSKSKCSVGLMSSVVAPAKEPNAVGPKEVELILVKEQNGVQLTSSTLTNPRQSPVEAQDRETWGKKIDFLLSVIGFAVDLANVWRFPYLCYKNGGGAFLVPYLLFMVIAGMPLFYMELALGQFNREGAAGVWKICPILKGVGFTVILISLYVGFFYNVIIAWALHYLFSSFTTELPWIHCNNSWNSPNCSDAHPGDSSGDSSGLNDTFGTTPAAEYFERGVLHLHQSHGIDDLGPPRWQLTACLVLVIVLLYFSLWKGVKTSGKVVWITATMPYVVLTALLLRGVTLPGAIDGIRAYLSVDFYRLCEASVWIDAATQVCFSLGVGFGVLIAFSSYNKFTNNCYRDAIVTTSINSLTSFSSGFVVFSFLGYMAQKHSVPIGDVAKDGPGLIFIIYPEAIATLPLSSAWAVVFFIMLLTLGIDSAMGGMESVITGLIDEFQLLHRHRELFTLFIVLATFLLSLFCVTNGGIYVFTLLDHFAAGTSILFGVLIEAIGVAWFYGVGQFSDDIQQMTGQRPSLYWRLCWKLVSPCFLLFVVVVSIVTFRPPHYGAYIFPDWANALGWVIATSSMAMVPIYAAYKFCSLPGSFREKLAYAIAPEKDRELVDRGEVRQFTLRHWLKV

[14] = test system: Mus musculus; test: Antipsychotic activity against DOI-induced head-twitch response in mouse assessed as reduction in head-twitch response administered intragastrically and measured for 30 mins; format: functional, organism-based; details: dose 1-10 mg/kg
[15] = molecular target: 5-hydroxytryptamine receptor 1B (Homo sapiens) (UniProt P28222); test: Binding affinity to 5-HT1B (unknown origin) at 10 uM by radioligand binding assay relative to control
Chain of 5-hydroxytryptamine receptor 1B (Homo sapiens) (P28222 whole entry): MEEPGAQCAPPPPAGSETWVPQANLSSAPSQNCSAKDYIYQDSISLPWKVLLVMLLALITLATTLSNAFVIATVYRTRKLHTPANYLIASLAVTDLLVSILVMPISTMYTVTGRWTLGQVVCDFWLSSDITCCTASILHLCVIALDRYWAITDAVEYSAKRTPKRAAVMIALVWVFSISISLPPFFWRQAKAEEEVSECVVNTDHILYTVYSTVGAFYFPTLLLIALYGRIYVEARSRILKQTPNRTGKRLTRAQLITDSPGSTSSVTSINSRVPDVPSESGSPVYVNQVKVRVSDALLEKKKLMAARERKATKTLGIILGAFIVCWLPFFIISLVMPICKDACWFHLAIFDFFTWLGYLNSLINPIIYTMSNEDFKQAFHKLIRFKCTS

[16] = molecular target: Alpha-1A adrenergic receptor (Homo sapiens) (UniProt P35348); test: Binding affinity to alpha 1A (unknown origin) at 10 uM by radioligand binding assay relative to control
Chain of Alpha-1A adrenergic receptor (Homo sapiens) (P35348 whole entry): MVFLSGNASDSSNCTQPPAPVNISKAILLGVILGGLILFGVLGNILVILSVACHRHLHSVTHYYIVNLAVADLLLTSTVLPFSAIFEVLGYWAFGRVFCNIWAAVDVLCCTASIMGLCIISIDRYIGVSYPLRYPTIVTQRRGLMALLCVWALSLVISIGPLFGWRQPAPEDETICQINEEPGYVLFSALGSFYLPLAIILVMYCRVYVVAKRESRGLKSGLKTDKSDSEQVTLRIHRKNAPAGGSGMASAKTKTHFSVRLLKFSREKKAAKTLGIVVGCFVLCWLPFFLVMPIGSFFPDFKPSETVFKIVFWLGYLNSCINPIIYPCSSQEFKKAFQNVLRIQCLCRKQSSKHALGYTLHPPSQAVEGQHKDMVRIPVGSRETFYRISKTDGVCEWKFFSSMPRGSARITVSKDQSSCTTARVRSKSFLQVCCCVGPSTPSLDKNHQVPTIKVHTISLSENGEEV

[17] = molecular target: Delta-type opioid receptor (Homo sapiens) (UniProt P41143); test: Binding affinity to op-delta receptor (unknown origin) at 10 uM by radioligand binding assay relative to control
Chain of Delta-type opioid receptor (Homo sapiens) (P41143 whole entry): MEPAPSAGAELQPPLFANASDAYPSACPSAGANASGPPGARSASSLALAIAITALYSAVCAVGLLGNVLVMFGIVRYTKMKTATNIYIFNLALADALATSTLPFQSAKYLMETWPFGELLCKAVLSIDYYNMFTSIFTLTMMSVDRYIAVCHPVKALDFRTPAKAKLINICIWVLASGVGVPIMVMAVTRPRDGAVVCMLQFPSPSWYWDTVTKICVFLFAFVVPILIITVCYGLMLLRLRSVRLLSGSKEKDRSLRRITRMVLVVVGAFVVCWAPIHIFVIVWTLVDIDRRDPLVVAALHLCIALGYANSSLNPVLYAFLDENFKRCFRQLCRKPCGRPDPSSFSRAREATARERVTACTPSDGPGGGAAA

[18] = molecular target: L-type calcium channel (Homo sapiens, UniProt O60840+Q01668+Q13698+Q13936); test: Binding affinity to L-type calcium channel (unknown origin) at 10 uM by radioligand binding assay relative to control; format: protein assay; details: read-out: Activity
[19] = molecular target: Nav1.5 (Homo sapiens, UniProt Q14524); test: Binding affinity to human Nav1.5 receptor at 10 uM by radioligand binding assay relative to control; details: read-out: Activity
[20] = Toxicity in male Sprague-Dawley rat assessed as change in clinical chemistry at 2.5 to 7.5 mg/kg, po administered once daily for 4 weeks and measured after 4 weeks; format: organism-based; details: in vivo, 1344 h, dose 2.5-7.5 mg/kg, time 8 weeks
[21] = Toxicity in female Sprague-Dawley rat assessed as suppression of body weight gain at 7.5 mg/kg, po administered once daily for 4 weeks and measured weekly twice; format: organism-based; details: in vivo, 672 h
[22] = molecular target: Cannabinoid receptor 1 (Homo sapiens) (UniProt P21554); test: Binding affinity to CB1 (unknown origin) at 10 uM by radioligand binding assay relative to control
[23] = Cardiotoxicity in conscious cynomolgus monkey assessed as decrease in body temperature at 3.125 to 12.5 mg/kg, IG by digital thermometer analysis; format: toxicity, organism-based, Macaca fascicularis; details: in vivo, po, dose 3.125-12.5 mg/kg
[24] = Cardiotoxicity in conscious cynomolgus monkey assessed as arrhythmia at 3.125 to 12.5 mg/kg, IG measured within 24 hrs; format: toxicity, organism-based, Macaca fascicularis; details: in vivo, po, dose 3.125-12.5 mg/kg
[25] = molecular target: 5-hydroxytryptamine receptor 2B (Homo sapiens) (UniProt P41595); test: Binding affinity to 5-HT2B (unknown origin) at 10 uM by radioligand binding assay relative to control
Chain of 5-hydroxytryptamine receptor 2B (Homo sapiens) (P41595 whole entry): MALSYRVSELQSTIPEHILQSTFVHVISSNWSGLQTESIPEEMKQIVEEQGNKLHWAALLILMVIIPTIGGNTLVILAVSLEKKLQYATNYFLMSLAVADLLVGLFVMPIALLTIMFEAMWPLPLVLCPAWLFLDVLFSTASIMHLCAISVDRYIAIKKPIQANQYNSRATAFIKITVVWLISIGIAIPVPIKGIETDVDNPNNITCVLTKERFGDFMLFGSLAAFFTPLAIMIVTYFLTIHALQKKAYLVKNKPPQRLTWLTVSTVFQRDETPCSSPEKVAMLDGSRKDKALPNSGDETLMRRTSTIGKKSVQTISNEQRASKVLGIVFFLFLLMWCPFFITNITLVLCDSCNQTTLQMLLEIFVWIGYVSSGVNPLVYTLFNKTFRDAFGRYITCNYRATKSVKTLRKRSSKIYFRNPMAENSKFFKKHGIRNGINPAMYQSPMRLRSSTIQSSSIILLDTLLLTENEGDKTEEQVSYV

[26] = test system: Mus musculus; test: Antipsychotic activity against MK-801 induced hypermobilization in male C57BL/6J mouse model assessed as reduction in hypermobilization state at 3 mg/kg, IG pretreated with compound followed by MK-801 addition and measured after 30 mins by open field test; format: functional, organism-based
[27] = Toxicity in female Sprague-Dawley rat assessed as piloerection at 7.5 mg/kg, po administered once daily for 4 weeks; format: organism-based; details: in vivo, 672 h
[28] = molecular target: D(2) dopamine receptor (Homo sapiens, UniProt P14416); test: Antagonist activity at human D2S receptor expressed in Flp-In-CHO cells; format: cell-based
Chain of D(2) dopamine receptor (P14416 whole entry): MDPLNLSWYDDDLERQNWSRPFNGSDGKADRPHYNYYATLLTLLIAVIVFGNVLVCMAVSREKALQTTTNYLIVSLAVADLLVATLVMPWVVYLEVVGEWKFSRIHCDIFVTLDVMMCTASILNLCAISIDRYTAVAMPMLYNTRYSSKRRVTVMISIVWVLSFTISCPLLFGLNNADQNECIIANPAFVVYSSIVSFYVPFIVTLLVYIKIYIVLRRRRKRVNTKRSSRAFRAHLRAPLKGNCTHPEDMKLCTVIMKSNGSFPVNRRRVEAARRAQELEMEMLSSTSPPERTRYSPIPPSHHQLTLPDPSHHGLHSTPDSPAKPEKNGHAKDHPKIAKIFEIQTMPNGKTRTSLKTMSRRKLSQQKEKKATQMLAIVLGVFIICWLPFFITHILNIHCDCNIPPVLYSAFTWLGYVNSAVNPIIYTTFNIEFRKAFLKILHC

[29] = Toxicity in male Beagle dog assessed as change in organ weight at 0.75 to 2.5 mg/kg, IG administered once daily for 4 weeks and measured after 4 weeks; format: organism-based, Canis lupus familiaris; details: in vivo, po, 1344 h, dose 0.75-2.5 mg/kg, time 8 weeks
[30] = Toxicity in male Sprague-Dawley rat assessed as change in hematology at 2.5 to 7.5 mg/kg, po administered once daily for 4 weeks and measured after 4 weeks; format: organism-based; details: in vivo, 1344 h, dose 2.5-7.5 mg/kg, time 8 weeks
[31] = test system: Mus musculus; test: Antipsychotic activity against MK-801 induced hypermobilization in male C57BL/6J mouse model assessed as reduction in hypermobilization state at 10 mg/kg, IG pretreated with compound followed by MK-801 addition and measured after 30 mins by open field test; format: functional, organism-based
[32] = molecular target: Cytochrome P450 3A4 (Homo sapiens, UniProt P08684); test: Inhibition of CYP3A4 in human liver microsomes in presence of NADPH by LC-MS/MS analysis; format: ADME, Microsome
Chain of Cytochrome P450 3A4 (P08684 whole entry): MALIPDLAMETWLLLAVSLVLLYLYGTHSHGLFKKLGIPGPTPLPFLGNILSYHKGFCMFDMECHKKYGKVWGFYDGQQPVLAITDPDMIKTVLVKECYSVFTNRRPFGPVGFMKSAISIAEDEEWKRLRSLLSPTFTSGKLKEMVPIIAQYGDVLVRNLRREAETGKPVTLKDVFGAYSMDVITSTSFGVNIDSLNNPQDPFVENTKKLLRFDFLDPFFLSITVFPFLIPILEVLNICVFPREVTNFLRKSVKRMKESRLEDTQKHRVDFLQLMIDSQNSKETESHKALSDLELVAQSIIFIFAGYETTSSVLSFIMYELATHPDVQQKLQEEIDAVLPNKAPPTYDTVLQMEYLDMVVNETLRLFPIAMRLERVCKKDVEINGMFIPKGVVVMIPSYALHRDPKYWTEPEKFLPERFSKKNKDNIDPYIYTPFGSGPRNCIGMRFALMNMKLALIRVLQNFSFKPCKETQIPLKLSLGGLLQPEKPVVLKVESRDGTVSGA

[33] = Toxicity in male Sprague-Dawley rat assessed as piloerection at 7.5 mg/kg, po administered once daily for 4 weeks and measured after 4 weeks; format: organism-based; details: in vivo, 1344 h, time 8 weeks
[34] = Mutagenicity in Salmonella typhimurium TA100 by Ames test; format: toxicity; details: salmonella enterica subsp. enterica serovar typhimurium
[35] = molecular target: MAO-A (Homo sapiens, UniProt P21397); test: Binding affinity to MAO-A (unknown origin) at 10 uM by radioligand binding assay relative to control; details: read-out: Activity
[36] = Toxicity in Sprague-Dawley rat assessed as good general health at 2.5 to 7.5 mg/kg, po administered once daily for 4 weeks; format: organism-based; details: in vivo, 672 h, dose 2.5-7.5 mg/kg
[37] = Toxicity in female Sprague-Dawley rat assessed as piloerection at 7.5 mg/kg, po administered once daily for 4 weeks and measured after 4 weeks; format: organism-based; details: in vivo, 1344 h, time 8 weeks
[38] = molecular target: 5-hydroxytryptamine receptor 7 (Homo sapiens, UniProt P34969); test: Agonist activity at recombinant human 5-HT7 expressed in HEK293 cells by FLIPR calcium assay; format: functional, cell-based
Chain of 5-hydroxytryptamine receptor 7 (P34969 whole entry): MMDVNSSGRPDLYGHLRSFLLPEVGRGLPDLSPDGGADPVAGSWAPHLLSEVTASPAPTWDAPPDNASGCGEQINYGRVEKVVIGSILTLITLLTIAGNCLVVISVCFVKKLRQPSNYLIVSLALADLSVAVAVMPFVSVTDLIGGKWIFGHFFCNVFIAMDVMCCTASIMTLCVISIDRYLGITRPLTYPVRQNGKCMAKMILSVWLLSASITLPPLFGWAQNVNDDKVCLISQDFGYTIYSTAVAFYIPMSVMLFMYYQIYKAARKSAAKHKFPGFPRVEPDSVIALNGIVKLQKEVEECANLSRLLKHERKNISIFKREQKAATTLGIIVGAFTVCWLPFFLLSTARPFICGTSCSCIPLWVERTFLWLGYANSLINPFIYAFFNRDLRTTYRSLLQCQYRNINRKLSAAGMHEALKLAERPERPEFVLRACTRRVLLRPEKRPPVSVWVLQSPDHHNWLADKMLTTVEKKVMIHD

c1cc2c(s1)[C@@H]1CNCCN1CC2
Activity [1]: Active
Activity [2]: 4.07%
Activity [3]: 8.57%
Activity [4]: Toxic
Activity [5]: Toxic
fraction unbound [6]: 0.761
Activity [7]: Non-toxic
Activity [8]: Toxic
Activity [9]: Non-toxic
Activity [10]: Toxic
Activity [11]: Non-toxic
Activity [12]: Non-toxic
Activity [13]: -6.53%
Activity [14]: Dose-dependent-effect
Activity [15]: 47.9%
Activity [16]: 55%
Activity [17]: 15.4%
activity at 10 µM [18]: -7.25%
activity at 10 µM [19]: 13.4%
Activity [20]: Non-toxic
Activity [21]: Toxic
Activity [22]: 2.45%
Activity [23]: Non-toxic
Activity [24]: Non-toxic
Activity [25]: 45.3%
Activity [26]: Active; More Effective Than Ulotaront
Activity [27]: Toxic
pIC50 [28]: < 4.00
Activity [29]: Non-toxic
Activity [30]: Non-toxic
Activity [31]: Active; Similar Effect Observed Compared To Brexpiprazole
pIC50 [32]: < 4.30
Activity [33]: Non-toxic
Activity [34]: Non-toxic
activity at 10 µM [35]: 5.33%
Activity [36]: Non-toxic
Activity [37]: Non-toxic
pEC50 [38]: 4.96
